In publication PMC12264554, “Application of preclinical absorption, distribution, metabolism, elimination in vitro techniques for the characterization and compound library optimization of novel antibiotic gallium salophen” (Drug Metabolism and Disposition, 2025):
Read-outs that look alike come from different tables or passages of the source.

Key:
[1] = Experimental LogP by reverse-phase HPLC method; assay type: physicochemical; details: extrapolated log kw
Text: LogP was experimentally determined using previously published reverse-phase high-performance liquid chromatography method, and this workflow was adapted using instrumentation described in the previous LC-MS/MS analysis section ([Coutinho et al, 2023]). Briefly, analogs were eluted using isocratic flow with an increasing percentage of organic solvent from 55% to 90% in increments of 5%. The change in the log of the retention factor, log k, was plotted against the fraction of organic solvent. This allowed for extrapolation to the y-intercept, which is when the fraction of organic in the system is zero, or log kw. The same workflow was applied to known compounds with a published logP value to establish a relationship between logP and log kw. This ratio was used to calculate the experimental logP from the log kw of the test compounds. The in silico prediction of logP values was obtained using an online calculator by Molinspiration Cheminformatics (molinspiration.com).

[2] = Caco-2 permeability screening; assay type: in vitro ADME; details: for Papp: Caco-2, ranked by Papp against control drugs, read-out: Permeability ranking; for efflux ratio at 20 µM: human
Protocol: Caco-2 cells were received from American Type Culture Collection and certified mycoplasma free. Cells were seeded on transwell plates (CoStar, growth area 0.33 cm^2/well, polycarbonate membrane, 0.33 μm pore size) between passage 20 and 27 and then analyzed between 21 and 25 days after wells were seeded to ensure enterocyte-like differentiation. Before assessing permeability, cells were washed once with Hank’s Balanced Salt Solution buffer, pH 7.4, and then incubated at 37 °C for 30 minutes. Transepithelial electrical resistance (TEER) was measured after equilibration before the experiment using an epithelial volt-ohmmeter (EVOM, World Precision Instruments), and cells were used if TEER > 250 Ω × cm^2. Cells were dosed to measure permeability from basolateral and apical sides at a concentration of 20 μM of test compound and 50 μM of Lucifer yellow. Lucifer yellow was used as a “zero permeability” marker to monitor the integrity of cell barrier. Samples were taken at 0 and 60 minutes from the donor side, and samples were taken at 30 and 60 minutes from the receiver side; media was replenished after the 30-minute sample was taken from both chambers. A calibration curve was prepared by serial dilution using the dosing solution in a 1:5 dilution. […] Samples were prepared for LC-MS/MS analysis by taking 100 μL of sample, adding 1 μM internal standard (GaSal-4 or GaSal-5), and crashing with 400 μL of methanol. Samples were centrifuged at 3000 rpm at 4 °C for 30 minutes, 200 μL of supernatant was transferred to a new plate, and 100 μL of water was added to each sample. Samples were vortexed and analyzed by LC-MS/MS as described earlier. […] To preliminarily evaluate organic cation transporter 1 (OCT1) or P-glycoprotein (P-gp)-dependent transport, transport studies were conducted with and without a 1 μM “inhibitor cocktail” alongside GaSal. […] The Papp for basolateral to apical, Papp apical to basolateral, and efflux ratio were reported for each compound. In order to calculate Papp, the concentration in the sampled time point was determined from the calibration curve and then converted to μg based on the volume of the chamber (0.2 mL for apical, 1.0 mL for basolateral). […] The calculation of Papp was determined using eq. […] Data are presented as the average ± SEM for each compound analyzed as n = 3 on 2 different days with 2 different cell line passages, for n = 6 total. GaSal is n = 3 on 3 different cell line passages since this was used as a test compound for the inhibition cocktail experiments.

[3] = Microsomal clearance assay; assay type: in vitro ADME, rat
Protocol: Library compounds were tested in triplicate at a concentration of 2 μM and incubated in 0.1 M potassium phosphate buffer containing 12 mM MgCl2 and 8 mM NADPH at pH 7.4 with either 0.5 mg/mL of Sprague–Dawley liver microsomes (Invitrogen). Samples were incubated for 0, 3, 7, 12, 20, and 30 minutes. At the designated time point, the incubation reaction was stopped by adding 100 μL of ACN containing 1 μM of either GaSal-4 or GaSal-5 as the internal standards. […] 7-Ethoxycoumarin (Sigma) was used as a positive control in this experiment. Intrinsic clearance (CLint) was calculated using eq. 2:(2) CLint=0.693/InVitroT1/2∗IncubationVolume/mgofmicrosomes∗45mgmicrosomes/gramofliver∗45gramsliver/kgofbodyweight
The average CLint ± SEM was determined for each compound for 2 replicates per time point.

S9 clearance assay = assay type: in vitro ADME; details: average ± SEM n = 3; for CLint scaled: S9 rat liver fraction, 2 μM, read-out: Predicted CLint (converted); for half-life at 2 µM: pH 7.4, S9 rat liver fraction
Protocol: Select library compounds were tested in triplicate at a concentration of 2 μM and incubated in 0.1 M potassium phosphate buffer containing 12 mM MgCl2 and 8 mM NADPH at pH 7.4 with 2.5 mg/mL of Sprague–Dawley S9 (Invitrogen). Incubations contained a final concentration of 2.5 mM UDP glucuronic acid, 0.10 mM adenosine 3’-phosphate 5’-phosphosulfate, 0.5 mM acetyl CoA, and 50 μg/mg protein alamethicin. All co-factors were from Sigma. Samples were incubated for 0, 3, 7, 12, 20, and 30 minutes. At the designated time point, the incubation reaction was stopped by adding 100 μL of ACN containing 1 μM of either GaSal-4 or GaSal-5 as the internal standard. […] A hundred microliter of supernatant was taken for LC-MS/MS analysis. 7-Ethoxycoumarin (Sigma) was used as a positive control in this experiment. Clearance was calculated according to eq. 3:(3) CLint=0.693/InVitroT1/2∗IncubationVolume/mgofS9∗165mgS9/gramofliver∗45gramsliver/kgofbodyweight
The average CLint ± SEM was determined for each compound for 3 replicates per time point.

CYP = experiment: 7-Ethoxycoumarin metabolism in microsomes in the presence of GaSal analogs (possible CYP inhibition); assay type: in vitro ADME, rat; details: co-incubation with 7-ethoxycoumarin
[4] = Caco-2, 20 μM, 30 and 60 min, average ± SEM, read-out: Papp apical to basolateral
[5] = Caco-2, 20 μM, 30 and 60 min, average ± SEM, read-out: Papp basolateral to apical
[6] = Caco-2, 20 μM, read-out: Efflux ratio B to A/A to B

Row | Structure (SMILES) | logP [1] | Papp A→B [2, 4] [×10⁻⁶ cm/s] | Papp B→A [2, 5] [×10⁻⁶ cm/s] | Papp A→B ([2]; Caco-2, with OCT1 inhibitor cocktail (1 μM verapamil and cisplatin), read-out: Papp Apical to Basolateral) [×10⁻⁶ cm/s] | Papp B→A ([2]; Caco-2, with OCT1 inhibitor cocktail (1 μM verapamil and cisplatin), read-out: Papp Basolateral to Apical) [×10⁻⁶ cm/s] | Papp A→B ([2]; Caco-2, with PGP inhibitor cocktail (1 μM cannabidiol and itraconazole), read-out: Papp Apical to Basolateral) [×10⁻⁶ cm/s] | Papp B→A ([2]; Caco-2, with PGP inhibitor cocktail (1 μM cannabidiol and itraconazole), read-out: Papp Basolateral to Apical) [×10⁻⁶ cm/s] | Papp [2] [×10⁻⁶ cm/s] | efflux ratio at 20 µM [2, 6] | efflux ratio at 20 µM ([2]; Caco-2, with OCT1 inhibitor cocktail, read-out: Efflux Ratio B to A/ A to B) | efflux ratio at 20 µM ([2]; Caco-2, with PGP inhibitor cocktail, read-out: Efflux Ratio B to A/ A to B) | CLint scaled ([3]; 2 μM, 0.5 mg/mL rat liver microsomes, NADPH, 30 min, read-out: experimental CLint (microsomes)) [mL/min/kg] | CLint scaled (S9 clearance assay) [mL/min/kg] | half-life at 2 µM (S9 clearance assay) [h] | 7-ethoxycoumarin metabolism when co-incubated (possible CYP inhibition) (CYP) | decrease in peak area over time ([3]; rat liver microsomes, 30-minute period) [%]
1 | Oc1ccccc1/C=N/c1ccccc1/N=C/c1ccccc1O.[Ga+3] [GaSal, gallium salophen] | 2.58 | 1.2 ± 0.01 | 13.6 ± 1.78 | 1.81 ± 0.03 | 14.7 ± 3.26 | 1.33 ± 0.03 | 16.8 ± 3.86 | 1.12 to 3.51 | 11.3 | 8.1 | 12.6 | 21.3 to 63 | 136 | 0.59 ± 0.15 | CYP inhibition | –
2 | Oc1cc(OCCN2CCOCC2)ccc1C=Nc1ccccc1N=Cc1ccc(OCCN2CCOCC2)cc1O.[Ga+3] [GaSal-3] | 3.87 | 0.04 ± 0.01 | 1.16 ± 0.09 | – | – | – | – | < 1.12 | 29 | – | – | – | 30.2 | 2.67 ± 1.21 | – | < 10
3 | O=C(O)CCOc1ccc(C=Nc2ccccc2N=Cc2ccc(OCCC(=O)O)cc2O)c(O)c1.[Ga+3] [GaSal-4] | 3.33 | < 0.01 | 1.44 ± 0.19 | – | – | – | – | < 1.12 | – | – | – | – | 398 | 0.2 ± 0.1 | – | –
4 | COCCOCCOc1ccc(C=Nc2ccccc2N=Cc2ccc(OCCOCCOC)cc2O)c(O)c1.[Ga+3] [GaSal-5] | 3.95 | 0.03 ± 0.01 | 3.2 ± 0.2 | – | – | – | – | < 1.12 | 107 | – | – | – | 27.8 | 2.88 ± 3.37 | – | –
5 | COCCOc1ccc(/C=N/c2ccccc2/N=C/c2ccc(OCCOC)cc2O)c(O)c1.[Ga+3] [GaSal-13] | 3.65 | 0.61 ± 0.01 | 0.91 ± 0.1 | – | – | – | – | < 1.12 | 1.49 | – | – | – | – | – | – | –
6 | COCCOc1ccc(/C=N/c2ccccc2N=C(C)c2ccccc2O)c(O)c1.[Ga+3] [GaSal-14] | 3.31 | < 0.01 | 1.19 ± 0.4 | – | – | – | – | < 1.12 | – | – | – | – | – | – | – | –
